Measurements as given in PubChem BioAssay AID256 (DTP/NCI, 2004).
Inconclusive results and toxic doses are left out. The calls were made as follows: active = survival T/C of 150% or more; inactive = T/C below 125% in these data.

System: CD2F1 mice, L1210 leukemia ip, survival T/C
Assay: NCI In Vivo Anticancer Drug Screen. Data for tumor model L1210 Leukemia (intraperitoneal) in CD2F1 (CDF1) mice
Settings: higher = longer survival
How it was run: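 Antitumor effect is scored in animals hosting a serially transplanted tumor. Values compare compound-dosed animals against vehicle-only controls as a simple quotient.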

Measured: T/C

Cc1nc(C(=O)O)c(C)c(=O)[nH]1
inactive: endpoint: mean survival time, dose: 25.0 mg/kg/injection, schedule: Q01DX005 (ip), vehicle: water 98 % of control | endpoint: mean survival time, dose: 50.0 mg/kg/injection, schedule: Q01DX005 (ip), vehicle: water 104 % of control | endpoint: mean survival time, dose: 100.0 mg/kg/injection, schedule: Q01DX005 (ip), vehicle: water 89 % of control | endpoint: mean survival time, dose: 200.0 mg/kg/injection, schedule: Q01DX005 (ip), vehicle: water 87 % of control

COc1cc(/C=N/NC(=O)CN(C)C)cc(OC)c1N(CCCl)CCCl
inactive: endpoint: mean survival time, dose: 50.0 mg/kg/injection, schedule: Q01DX009 (ip), vehicle: Klucel (hydroxypropylcellulose) (HPC) 122 % of control | endpoint: mean survival time, dose: 100.0 mg/kg/injection, schedule: Q01DX009 (ip), vehicle: Klucel (hydroxypropylcellulose) (HPC) 113 % of control

NC(=O)C(Br)Cc1cccc(Cl)c1 (stereo unspecified)
inactive: endpoint: mean survival time, dose: 50.0 mg/kg/injection, schedule: Q01DX001 (ip), vehicle: saline 102 % of control | endpoint: mean survival time, dose: 100.0 mg/kg/injection, schedule: Q01DX001 (ip), vehicle: saline 100 % of control | endpoint: mean survival time, dose: 200.0 mg/kg/injection, schedule: Q01DX001 (ip), vehicle: saline 100 % of control | endpoint: mean survival time, dose: 400.0 mg/kg/injection, schedule: Q01DX001 (ip), vehicle: saline 100 % of control

CC(=O)NC(CC(C)C)C(=O)O.CC(=O)NC(CC(C)C)C(=O)O.[NH-]C1CCCCC1[NH-].[Pt+2] (stereo unspecified)
inactive: endpoint: median survival time, dose: 3.12 mg/kg/injection, schedule: Q04DX003 (ip), vehicle: saline 97 % of control | endpoint: median survival time, dose: 6.25 mg/kg/injection, schedule: Q04DX003 (ip), vehicle: saline 100 % of control | endpoint: median survival time, dose: 12.5 mg/kg/injection, schedule: Q04DX003 (ip), vehicle: saline 97 % of control | endpoint: median survival time, dose: 25.0 mg/kg/injection, schedule: Q04DX003 (ip), vehicle: saline 100 % of control | endpoint: median survival time, dose: 50.0 mg/kg/injection, schedule: Q04DX003 (ip), vehicle: saline 104 % of control | endpoint: median survival time, dose: 100.0 mg/kg/injection, schedule: Q04DX003 (ip), vehicle: saline 105 % of control | endpoint: median survival time, dose: 200.0 mg/kg/injection, schedule: Q04DX003 (ip), vehicle: saline 108 % of control

CC1COC(=O)O1 (stereo unspecified)
inactive: endpoint: mean survival time, dose: 100.0 mg/kg/injection, schedule: Q01DX009 (ip), vehicle: saline 101 % of control | endpoint: mean survival time, dose: 100.0 mg/kg/injection, schedule: Q04DX003 (ip), vehicle: saline with Tween-80 97 % of control | endpoint: mean survival time, dose: 200.0 mg/kg/injection, schedule: Q01DX009 (ip), vehicle: saline 98 % of control | endpoint: mean survival time, dose: 200.0 mg/kg/injection, schedule: Q04DX003 (ip), vehicle: saline with Tween-80 97 % of control | endpoint: mean survival time, dose: 400.0 mg/kg/injection, schedule: Q01DX009 (ip), vehicle: saline 101 % of control | endpoint: mean survival time, dose: 400.0 mg/kg/injection, schedule: Q04DX003 (ip), vehicle: saline with Tween-80 96 % of control

CCOC(=O)CCCC/C(C)=N\N=C(C(C)C)C(C)C
inactive: endpoint: mean survival time, dose: 75.0 mg/kg/injection, schedule: Q01DX001 (ip), vehicle: other 103 % of control | endpoint: mean survival time, dose: 150.0 mg/kg/injection, schedule: Q01DX001 (ip), vehicle: other 97 % of control | endpoint: mean survival time, dose: 300.0 mg/kg/injection, schedule: Q01DX001 (ip), vehicle: other 89 % of control

NCCOc1ccc(-n2cnc3c(=O)[nH]c(N)nc32)cc1
inactive: endpoint: mean survival time, dose: 50.0 mg/kg/injection, schedule: Q04DX002 (ip), vehicle: saline with Tween-80 93 % of control | endpoint: mean survival time, dose: 100.0 mg/kg/injection, schedule: Q04DX002 (ip), vehicle: saline with Tween-80 96 % of control | endpoint: mean survival time, dose: 200.0 mg/kg/injection, schedule: Q04DX002 (ip), vehicle: saline with Tween-80 104 % of control

CC(C)(C)CC(C)(C)c1ccc(OCCOc2ccccc2NS(=O)(=O)c2ccc(N)cc2)cc1
inactive: endpoint: mean survival time, dose: 100.0 mg/kg/injection, schedule: Q01DX001 (ip), vehicle: Klucel (hydroxypropylcellulose) (HPC) 98 % of control | endpoint: mean survival time, dose: 200.0 mg/kg/injection, schedule: Q01DX001 (ip), vehicle: Klucel (hydroxypropylcellulose) (HPC) 96 % of control

Cc1cccc(N=Cc2ccc3c(c2)OCO3)c1
inactive: endpoint: mean survival time, dose: 100.0 mg/kg/injection, schedule: Q04DX003 (ip), vehicle: Klucel (hydroxypropylcellulose) (HPC) 100 % of control | endpoint: mean survival time, dose: 200.0 mg/kg/injection, schedule: Q04DX003 (ip), vehicle: Klucel (hydroxypropylcellulose) (HPC) 111 % of control

CC(C)CC(C)OP(=S)(S)OC(C)CC(C)C (stereo unspecified)
inactive: endpoint: mean survival time, dose: 12.5 mg/kg/injection, schedule: Q04DX002 (ip), vehicle: saline 95 % of control | endpoint: mean survival time, dose: 25.0 mg/kg/injection, schedule: Q04DX002 (ip), vehicle: saline 95 % of control | endpoint: mean survival time, dose: 50.0 mg/kg/injection, schedule: Q04DX002 (ip), vehicle: saline 109 % of control
